The results in this text go back to ChEMBL document CHEMBL5523732, “Structure-Guided Design of Potent Coronavirus Inhibitors with a 2-Pyrrolidone Scaffold: Biochemical, Crystallographic, and Virological Studies” (J Med Chem, 2024).

In general, CC50 refers to the concentration that lowers cell viability or growth by half. Read a low CC50 as harm at low concentration. Usually IC50 stands for the concentration that inhibits the measured activity by half. Broadly, the EC50 is the concentration giving half of the maximal effect. Higher therefore signals a need for much substance.

Test system in the first data set: not listed separately
Description: Cytotoxicity against cat CRFK cells incubated for 72 hrs by CytoTox 96 analysis. The data set is classed as toxicity, cell-based, Felis catus.
Settings: not given
The compound `CC(C)C[C@H](NC(=O)OC[C@@H]1CCC(=O)N1Cc1cccc(Cl)c1)C(=O)N[C@@H](C[C@@H]1CCNC1=O)C(O)S(=O)(=O)O` (stereo partly drawn) had a cytotoxic concentration (CC50) at 72 h greater than 50000 nM.

In turn, `CC(C)C[C@H](NC(=O)OC[C@@H]1CCC(=O)N1Cc1cccc(C(F)(F)F)c1)C(=O)N[C@@H](C[C@@H]1CCNC1=O)C(O)S(=O)(=O)O` (stereo partly drawn) had a cytotoxic concentration (CC50) at 72 h greater than 50000 nM.

The compound `CC(C)C[C@H](NC(=O)OC[C@@H]1CCC(=O)N1CC1CCCCC1)C(=O)N[C@@H](C[C@@H]1CCNC1=O)C(O)S(=O)(=O)O` (stereo partly drawn) showed a CC50 at 72 h greater than 50000 nM.

Compound `CC(C)C[C@H](NC(=O)OC[C@@H]1CCC(=O)N1Cc1cccc(C(F)(F)F)c1)C(=O)N[C@H](C=O)C[C@@H]1CCNC1=O` showed a CC50 at 72 h greater than 50000 nM.

Take `CC(C)C[C@H](NC(=O)OC[C@@H]1CCC(=O)N1Cc1ccc2c(c1)OC(F)(F)O2)C(=O)N[C@@H](C[C@@H]1CCNC1=O)C(O)S(=O)(=O)O` (stereo partly drawn): the cytotoxic concentration (CC50) at 72 h is greater than 50000 nM.

Compound `CC(C)C[C@H](NC(=O)OCC1CC(=O)N(CC2CC3C=CC2C3)C1)C(=O)N[C@H](C=O)C[C@@H]1CCNC1=O` (stereo partly drawn) registered a cytotoxic concentration (CC50) at 72 h greater than 50000 nM.

Compound `CC(C)C[C@H](NC(=O)OC[C@@H]1CCC(=O)N1Cc1cccc(F)c1)C(=O)N[C@H](C=O)C[C@@H]1CCNC1=O` gave a CC50 at 72 h greater than 50000 nM.

Compound `CC(C)C[C@H](NC(=O)OC[C@@H]1CCC(=O)N1CC1CCCCC1)C(=O)N[C@H](C=O)C[C@@H]1CCNC1=O` registered a CC50 at 72 h greater than 50000 nM.

Turning to `CC(C)C[C@H](NC(=O)OC[C@@H]1CCC(=O)N1Cc1cccc(F)c1)C(=O)N[C@@H](C[C@@H]1CCNC1=O)C(O)S(=O)(=O)O` (stereo partly drawn), the cytotoxic concentration (CC50) at 72 h is greater than 50000 nM.

The compound `CC(C)C[C@H](NC(=O)OCC1CC(=O)N(CC2CC3C=CC2C3)C1)C(=O)N[C@@H](C[C@@H]1CCNC1=O)C(O)S(=O)(=O)O` (stereo partly drawn) came in with a 50% cytotoxic concentration (CC50) at 72 h greater than 50000 nM.

Compound `CC(C)C[C@H](NC(=O)OC[C@@H]1CCC(=O)N1Cc1ccc2c(c1)OC(F)(F)O2)C(=O)N[C@H](C=O)C[C@@H]1CCNC1=O` came in with a 50% cytotoxic concentration (CC50) at 72 h greater than 50000 nM.

`CC(C)C[C@H](NC(=O)OC[C@@H]1CCC(=O)N1Cc1cccc(Cl)c1)C(=O)N[C@H](C=O)C[C@@H]1CCNC1=O`: the CC50 at 72 h is greater than 50000 nM.

Another data set concerns the target Replicase polyprotein 1ab (Severe acute respiratory syndrome coronavirus 2, UniProt P0DTD1). The experiment in a line: Inhibition of full length N-terminal his6-tagged SARS-CoV-2 3CL protease using FAM-SAVLQ as substrate preincubated with compound for 30 mins followed by substrate addition and measured after 30 mins by FRET assay.
Settings: not given
In the case of `CC(C)C[C@H](NC(=O)OC[C@@H]1CCC(=O)N1Cc1cccc(Cl)c1)C(=O)N[C@@H](C[C@@H]1CCNC1=O)C(O)S(=O)(=O)O` (stereo partly drawn), the IC50 came to 100 nM.

As to `CC(C)C[C@H](NC(=O)OC[C@@H]1CCC(=O)N1Cc1cccc(C(F)(F)F)c1)C(=O)N[C@@H](C[C@@H]1CCNC1=O)C(O)S(=O)(=O)O` (stereo partly drawn), the 50% inhibitory concentration (IC50) is 770 nM.

With `CC(C)C[C@H](NC(=O)OC[C@@H]1CCC(=O)N1CC1CCCCC1)C(=O)N[C@@H](C[C@@H]1CCNC1=O)C(O)S(=O)(=O)O` (stereo partly drawn), the half-inhibitory concentration (IC50) turned out to be 280 nM.

For the compound `CC(C)C[C@H](NC(=O)OC[C@@H]1CCC(=O)N1Cc1cccc(C(F)(F)F)c1)C(=O)N[C@H](C=O)C[C@@H]1CCNC1=O`, the concentration for half-maximal inhibition (IC50) stood at 740 nM.

Take `CC(C)C[C@H](NC(=O)OC[C@@H]1CCC(=O)N1Cc1ccc2c(c1)OC(F)(F)O2)C(=O)N[C@@H](C[C@@H]1CCNC1=O)C(O)S(=O)(=O)O` (stereo partly drawn): the IC50 came to 320 nM.

With `CC(C)C[C@H](NC(=O)OCC1CC(=O)N(CC2CC3C=CC2C3)C1)C(=O)N[C@H](C=O)C[C@@H]1CCNC1=O` (stereo partly drawn), the concentration for half-maximal inhibition (IC50) was 190 nM.

As for `CC(C)C[C@H](NC(=O)OC[C@@H]1CCC(=O)N1Cc1cccc(F)c1)C(=O)N[C@H](C=O)C[C@@H]1CCNC1=O`, the half-inhibitory concentration (IC50) stood at 110 nM.

On to `CC(C)C[C@H](NC(=O)OC[C@@H]1CCC(=O)N1CC1CCCCC1)C(=O)N[C@H](C=O)C[C@@H]1CCNC1=O`, for which the IC50 is 250 nM.

Regarding `CC(C)C[C@H](NC(=O)OC[C@@H]1CCC(=O)N1Cc1cccc(F)c1)C(=O)N[C@@H](C[C@@H]1CCNC1=O)C(O)S(=O)(=O)O` (stereo partly drawn), the IC50 turned out to be 160 nM.

As to `CC(C)C[C@H](NC(=O)OCC1CC(=O)N(CC2CC3C=CC2C3)C1)C(=O)N[C@@H](C[C@@H]1CCNC1=O)C(O)S(=O)(=O)O` (stereo partly drawn), the IC50 was determined as 190 nM.

Consider `CC(C)C[C@H](NC(=O)OC[C@@H]1CCC(=O)N1Cc1ccc2c(c1)OC(F)(F)O2)C(=O)N[C@H](C=O)C[C@@H]1CCNC1=O`, for which the IC50 stood at 270 nM.

For the compound `CC(C)C[C@H](NC(=O)OC[C@@H]1CCC(=O)N1Cc1cccc(Cl)c1)C(=O)N[C@H](C=O)C[C@@H]1CCNC1=O`, the IC50 amounted to 110 nM.

For another data set, the system named is SARS-CoV-2. Description: Antiviral activity against SARS CoV-2 Wuhan-Hu-1 infected in HEK293T cells incubated for 24 hrs. The data set is classed as functional, organism-based. To be noted: Severe acute respiratory syndrome coronavirus 2, Wuhan-Hu-1, HEK-293T.
For the compound `CC(C)C[C@H](NC(=O)OC[C@@H]1CCC(=O)N1Cc1cccc(Cl)c1)C(=O)N[C@@H](C[C@@H]1CCNC1=O)C(O)S(=O)(=O)O` (stereo partly drawn), the concentration giving a half-maximal response (EC50) worked out at 120 nM.

The compound `CC(C)C[C@H](NC(=O)OC[C@@H]1CCC(=O)N1Cc1cccc(C(F)(F)F)c1)C(=O)N[C@@H](C[C@@H]1CCNC1=O)C(O)S(=O)(=O)O` (stereo partly drawn) showed an EC50 of 490 nM.

`CC(C)C[C@H](NC(=O)OC[C@@H]1CCC(=O)N1CC1CCCCC1)C(=O)N[C@@H](C[C@@H]1CCNC1=O)C(O)S(=O)(=O)O` (stereo partly drawn) showed an EC50 of 790 nM.

In the case of `CC(C)C[C@H](NC(=O)OC[C@@H]1CCC(=O)N1Cc1cccc(C(F)(F)F)c1)C(=O)N[C@H](C=O)C[C@@H]1CCNC1=O`, the EC50 amounted to 560 nM.

Compound `CC(C)C[C@H](NC(=O)OC[C@@H]1CCC(=O)N1Cc1ccc2c(c1)OC(F)(F)O2)C(=O)N[C@@H](C[C@@H]1CCNC1=O)C(O)S(=O)(=O)O` (stereo partly drawn) displayed a half-maximal effective concentration (EC50) of 450 nM.

Compound `CC(C)C[C@H](NC(=O)OCC1CC(=O)N(CC2CC3C=CC2C3)C1)C(=O)N[C@H](C=O)C[C@@H]1CCNC1=O` (stereo partly drawn) showed a concentration giving a half-maximal response (EC50) of 280 nM.

As to `CC(C)C[C@H](NC(=O)OC[C@@H]1CCC(=O)N1Cc1cccc(F)c1)C(=O)N[C@H](C=O)C[C@@H]1CCNC1=O`, the concentration for a half-maximal effect (EC50) is 50 nM.

`CC(C)C[C@H](NC(=O)OC[C@@H]1CCC(=O)N1CC1CCCCC1)C(=O)N[C@H](C=O)C[C@@H]1CCNC1=O`: the midpoint of the response, the EC50, lay at 750 nM.

`CC(C)C[C@H](NC(=O)OC[C@@H]1CCC(=O)N1Cc1cccc(F)c1)C(=O)N[C@@H](C[C@@H]1CCNC1=O)C(O)S(=O)(=O)O` (stereo partly drawn) came in with an EC50 of 40 nM.

`CC(C)C[C@H](NC(=O)OCC1CC(=O)N(CC2CC3C=CC2C3)C1)C(=O)N[C@@H](C[C@@H]1CCNC1=O)C(O)S(=O)(=O)O` (stereo partly drawn) displayed a half-maximal effective concentration (EC50) of 350 nM.

`CC(C)C[C@H](NC(=O)OC[C@@H]1CCC(=O)N1Cc1ccc2c(c1)OC(F)(F)O2)C(=O)N[C@H](C=O)C[C@@H]1CCNC1=O` came in with a concentration giving a half-maximal response (EC50) of 510 nM.

Consider `CC(C)C[C@H](NC(=O)OC[C@@H]1CCC(=O)N1Cc1cccc(Cl)c1)C(=O)N[C@H](C=O)C[C@@H]1CCNC1=O`, for which the concentration giving a half-maximal response (EC50) stood at 110 nM.

Test system in a further data set: not listed separately
Description: Inhibition of MERS-CoV 3CLpro using SG-QXL520 as substrate preincubated with compound for 30 mins followed by susbtrate addition and measured after 30 mins by FRET assay.
Settings: not given
Set-up: species or system Middle East respiratory syndrome-related coronavirus.
For `CC(C)C[C@H](NC(=O)OC[C@@H]1CCC(=O)N1Cc1cccc(Cl)c1)C(=O)N[C@@H](C[C@@H]1CCNC1=O)C(O)S(=O)(=O)O` (stereo partly drawn), the IC50 stood at 18 nM.

For `CC(C)C[C@H](NC(=O)OC[C@@H]1CCC(=O)N1Cc1cccc(C(F)(F)F)c1)C(=O)N[C@@H](C[C@@H]1CCNC1=O)C(O)S(=O)(=O)O` (stereo partly drawn), the 50% inhibitory concentration (IC50) turned out to be 50 nM.

Take `CC(C)C[C@H](NC(=O)OC[C@@H]1CCC(=O)N1CC1CCCCC1)C(=O)N[C@@H](C[C@@H]1CCNC1=O)C(O)S(=O)(=O)O` (stereo partly drawn): the IC50 came out at 60 nM.

On to `CC(C)C[C@H](NC(=O)OC[C@@H]1CCC(=O)N1Cc1cccc(C(F)(F)F)c1)C(=O)N[C@H](C=O)C[C@@H]1CCNC1=O`, for which the half-inhibitory concentration (IC50) turned out to be 50 nM.

With `CC(C)C[C@H](NC(=O)OC[C@@H]1CCC(=O)N1Cc1ccc2c(c1)OC(F)(F)O2)C(=O)N[C@@H](C[C@@H]1CCNC1=O)C(O)S(=O)(=O)O` (stereo partly drawn), the IC50 amounted to 50 nM.

For the compound `CC(C)C[C@H](NC(=O)OCC1CC(=O)N(CC2CC3C=CC2C3)C1)C(=O)N[C@H](C=O)C[C@@H]1CCNC1=O` (stereo partly drawn), the half-maximal inhibitory concentration (IC50) was 80 nM.

With `CC(C)C[C@H](NC(=O)OC[C@@H]1CCC(=O)N1Cc1cccc(F)c1)C(=O)N[C@H](C=O)C[C@@H]1CCNC1=O`, the 50% inhibitory concentration (IC50) turned out to be 430 nM.

Take `CC(C)C[C@H](NC(=O)OC[C@@H]1CCC(=O)N1CC1CCCCC1)C(=O)N[C@H](C=O)C[C@@H]1CCNC1=O`: the 50% inhibitory concentration (IC50) came out at 50 nM.

For `CC(C)C[C@H](NC(=O)OC[C@@H]1CCC(=O)N1Cc1cccc(F)c1)C(=O)N[C@@H](C[C@@H]1CCNC1=O)C(O)S(=O)(=O)O` (stereo partly drawn), the IC50 was determined as 240 nM.

As for `CC(C)C[C@H](NC(=O)OCC1CC(=O)N(CC2CC3C=CC2C3)C1)C(=O)N[C@@H](C[C@@H]1CCNC1=O)C(O)S(=O)(=O)O` (stereo partly drawn), the IC50 amounted to 80 nM.

On to `CC(C)C[C@H](NC(=O)OC[C@@H]1CCC(=O)N1Cc1ccc2c(c1)OC(F)(F)O2)C(=O)N[C@H](C=O)C[C@@H]1CCNC1=O`, for which the concentration for half-maximal inhibition (IC50) was 50 nM.

As to `CC(C)C[C@H](NC(=O)OC[C@@H]1CCC(=O)N1Cc1cccc(Cl)c1)C(=O)N[C@H](C=O)C[C@@H]1CCNC1=O`, the IC50 stood at 17 nM.
